Assay results: ChEMBL document CHEMBL5543099 (Eur J Med Chem, 2024)
In brackets after ≈: the same amount, converted by molar mass. Activity calls are given as the source filed them. The rule behind the calls is not given here.

Columns and labels:
Staphylococcus aureus [1] = assay: Antimicrobial activity against Staphylococcus aureus ATCC 29213 assessed as inhibition of bacterial growth incubated for 16 to 18 hrs by CLSI protocol based Muller Hinton broth assay; assay type: functional; conditions: time 16-18 hrs
Enterococcus faecalis = assay: Antimicrobial activity against Enterococcus faecalis ATCC 29212 assessed as inhibition of bacterial growth incubated for 16 to 18 hrs by CLSI protocol based Muller Hinton broth assay; assay type: functional; conditions: time 16-18 hrs
Escherichia coli = assay: Antimicrobial activity against Escherichia coli ATCC 25922 assessed as inhibition of bacterial growth incubated for 16 to 18 hrs by CLSI protocol based Muller Hinton broth assay; assay type: functional; conditions: time 16-18 hrs
[2] = test system: Stenotrophomonas maltophilia; assay: Antimicrobial activity against Stenotrophomonas maltophilia ATCC 17808 assessed as inhibition of bacterial growth incubated for 16 to 18 hrs by CLSI protocol based Muller Hinton broth assay; assay type: functional; conditions: time 16-18 hrs
[3] = Hemolytic activity in defibrinated sheep RBC incubated for 1 hrs; assay type: toxicity, cell-based, Ovis aries, Erythrocyte; conditions: defibrinated sheep red blood cells
Cell membrane [4] = assay: Induction of Cytoplasmic membrane depolarization in Staphylococcus aureus at 16 microg/ml incubated for 15 mins by DiSC3(5) dye based fluorescence microplate reader; assay type: cell membranes; conditions: dose 16.0 µg/ml
Cell membrane [5] = assay: Induction of inner membrane permeabilization in Staphylococcus aureus assessed as increase in fluorescence intensity at 16 microg/ml incubated for 15 mins by PI staining based microplate reader; assay type: cell membranes; conditions: dose 16.0 µg/ml
[6] = Cytotoxicity against rat HBZY-1 cells assessed as cell survival rate at 64 microg/ml incubated for 48 hrs by CCK8 assay relative to control; assay type: toxicity, cell-based; conditions: at 64 µg/mL, read-out: Activity
[7] = Cytotoxicity against human SW620 cells assessed as cell survival rate at 64 microg/ml incubated for 48 hrs by CCK8 assay relative to control; assay type: toxicity, cell-based, SW-620; conditions: at 64 µg/mL, read-out: Activity
Staphylococcus aureus [8] = assay: Antibacterial activity against Staphylococcus aureus assessed as reduction in bacterial colony at 8 times of MIC incubated for 8 hrs by time-kill kinetics assay; assay type: functional, organism-based
Staphylococcus aureus [9] = assay: Antibacterial activity against Staphylococcus aureus assessed as inhibition of bacterial growth by measuring fold change in MIC incubated for 6 hrs in presence of defibrinated sheep 50% plasma by CLSI protocol based Muller Hinton broth assay; assay type: functional
Staphylococcus aureus [10] = assay: Antibacterial activity against Staphylococcus aureus assessed as inhibition of bacterial growth by measuring fold change in MIC incubated for 6 hrs in presence of 50% fetal bovine plasma by CLSI protocol based Muller Hinton broth assay; assay type: functional
Staphylococcus aureus [11] = assay: Antibacterial activity against Staphylococcus aureus assessed as inhibition of bacterial growth by measuring fold change in MIC incubated for 6 hrs in presence of 50% fetal bovine serum by CLSI protocol based Muller Hinton broth assay; assay type: functional
Cell membrane [12] = assay: Induction of inner membrane permeabilization in Staphylococcus aureus assessed as fluorescence intensity at 16 microg/ml incubated for 15 mins by PI staining based microplate reader; assay type: cell membranes; conditions: dose 16.0 µg/ml
Cell membrane [13] = assay: Induction of cell membrane damage in Escherichia coli assessed as nucleic acid leakage at 4 times of MIC incubated for 2 hrs by n ultra-micro-volume spectrophotometric analysis; assay type: cell membranes
Staphylococcus aureus [14] = assay: Antibacterial activity against Staphylococcus aureus assessed as inhibition of bacterial growth incubated for 16 to 20 hrs by CLSI protocol based broth microdilution method; assay type: functional; conditions: time 16-20 hrs
[15] = Hemolytic activity in sheep RBC assessed as hemolysis incubated for 1 hrs by absorbance based assay; assay type: toxicity, cell-based, Ovis aries, Erythrocyte; conditions: sheep red blood cells
Staphylococcus aureus [16] = assay: Antibacterial activity against Staphylococcus aureus assessed as inhibition of bacterial growth incubated for 6 hrs in presence of defibrinated sheep 50% plasma by CLSI protocol based Muller Hinton broth assay; assay type: functional
Staphylococcus aureus [17] = assay: Antibacterial activity against Staphylococcus aureus assessed as inhibition of bacterial growth incubated for 6 hrs in presence of 50% fetal bovine plasma by CLSI protocol based Muller Hinton broth assay; assay type: functional
Staphylococcus aureus [18] = assay: Antibacterial activity against Staphylococcus aureus assessed as inhibition of bacterial growth incubated for 6 hrs in presence of 50% fetal bovine serum by CLSI protocol based Muller Hinton broth assay; assay type: functional

Molecule	MIC (Staphylococcus aureus [1]) [µg/mL]	MIC (Enterococcus faecalis) [µg/mL]	MIC (Escherichia coli) [µg/mL]	MIC [2] [µg/mL]	HC50 at 1 h [3] [µg/mL]	further results
CCCCCNC(=O)C[n+]1ccc(C(=O)N2CCN(c3cc4c(cc3F)c(=O)c(C(=O)O)cn4C3CC3)CC2)cc1.[Br-]	16	8	16	64	> 1280	–
CCCCCCCCNC(=O)C[n+]1cccc(C(=O)N2CCN(c3cc4c(cc3F)c(=O)c(C(=O)O)cn4C3CC3)CC2)c1.[Br-]	8	8	8	16	> 1280	–
CCCNC(=O)C[n+]1cccc(C(=O)N2CCN(c3cc4c(cc3F)c(=O)c(C(=O)O)cn4C3CC3)CC2)c1.[Br-]	64	64	16	> 64	> 1280	–
CCCCCCNC(=O)C[n+]1ccc(C(=O)N2CCN(c3cc4c(cc3F)c(=O)c(C(=O)O)cn4C3CC3)CC2)cc1.[Br-]	8	8	8	16	> 1280	–
O=C(O)c1cn(C2CC2)c2cc(N3CCN(C(=O)C[n+]4ccc(-c5ccccc5)cc4)CC3)c(F)cc2c1=O.[Br-]	16	8	16	16	> 1280	–
GENTAMICIN	–	–	–	–	–	Activity (Cell membrane [4]): inactive
CCCCCCCNC(=O)C[n+]1cccc(C(=O)N2CCN(c3cc4c(cc3F)c(=O)c(C(=O)O)cn4C3CC3)CC2)c1.[Br-]	8	8	8	64	> 1280	–
C[C@@H](O)[C@H]1C(=O)N2C(C(=O)O)=C(S[C@@H]3CN[C@H](C(=O)N(C)C)C3)[C@H](C)[C@H]12 [MEROPENEM]	–	–	0.03 (≈ 0.0782 µM)	0.06 (≈ 0.156 µM)	–	–
O=C(O)c1cn(C2CC2)c2cc(N3CCNCC3)c(F)cc2c1=O	–	–	–	–	–	Activity (Cell membrane [4]): inactive; Activity (Cell membrane [5]): inactive
CCCCCCCCCNC(=O)C[n+]1cccc(C(=O)N2CCN(c3cc4c(cc3F)c(=O)c(C(=O)O)cn4C3CC3)CC2)c1.[Br-]	8	8	8	32	> 1280	–
CCCCCCCNC(=O)C[n+]1ccc(C(=O)N2CCN(c3cc4c(cc3F)c(=O)c(C(=O)O)cn4C3CC3)CC2)cc1.[Br-]	4	2	4	32	> 1280	–
CCCCCCCCCNC(=O)C[n+]1ccc(C(=O)N2CCN(c3cc4c(cc3F)c(=O)c(C(=O)O)cn4C3CC3)CC2)cc1.[Br-]	4	2	4	16	> 1280	–
CCCCCCNC(=O)C[n+]1cccc(C(=O)N2CCN(c3cc4c(cc3F)c(=O)c(C(=O)O)cn4C3CC3)CC2)c1.[Br-]	16	32	16	64	> 1280	–
CC(C)(C)c1ccc(C[n+]2ccc(C(=O)N3CCN(c4cc5c(cc4F)c(=O)c(C(=O)O)cn5C4CC4)CC3)cc2)cc1.[Br-]	8	4	4	4	> 1280	–
O=C(O)c1cn(C2CC2)c2cc(N3CCN(C(=O)c4cc[n+](Cc5ccc(-c6ccccc6)cc5)cc4)CC3)c(F)cc2c1=O.[Br-]	4	32	4	4	> 1280	–
C=C[C@]1(C)C[C@@H](OC(=O)CS[C@@H]2C[C@H]3CC[C@@H](C2)N3C)[C@]2(C)[C@H](C)CC[C@]3(CCC(=O)[C@H]32)[C@@H](C)[C@@H]1O [RETAPAMULIN]	–	–	–	–	–	viability at 48 h, 64 microg/ml [6]: 1.7%; viability at 48 h, 64 microg/ml [7]: 4.7%
CCCCNC(=O)C[n+]1ccc(C(=O)N2CCN(c3cc4c(cc3F)c(=O)c(C(=O)O)cn4C3CC3)CC2)cc1.[Br-]	16	16	16	64	> 1280	–
CCCNC(=O)C[n+]1ccc(C(=O)N2CCN(c3cc4c(cc3F)c(=O)c(C(=O)O)cn4C3CC3)CC2)cc1.[Br-]	16	16	16	> 64	> 1280	–
O=C(O)c1cn(C2CC2)c2cc(N3CCN(C(=O)c4cc[n+](Cc5ccc(Cl)cc5)cc4)CC3)c(F)cc2c1=O.[Br-]	16	8	8	8	> 1280	–
O=C(O)c1cn(C2CC2)c2cc(N3CCN(C(=O)c4cc[n+](Cc5ccc(F)cc5)cc4)CC3)c(F)cc2c1=O.[Br-]	16	8	4	4	> 1280	–
CCCCCNC(=O)C[n+]1cccc(C(=O)N2CCN(c3cc4c(cc3F)c(=O)c(C(=O)O)cn4C3CC3)CC2)c1.[Br-]	32	64	32	> 64	> 1280	–
CCCCNC(=O)C[n+]1cccc(C(=O)N2CCN(c3cc4c(cc3F)c(=O)c(C(=O)O)cn4C3CC3)CC2)c1.[Br-]	64	> 64	32	> 64	> 1280	–
CN[C@H](CC(C)C)C(=O)N[C@H]1C(=O)N[C@@H](CC(N)=O)C(=O)N[C@H]2C(=O)N[C@H]3C(=O)N[C@H](C(=O)N[C@H](C(=O)O)c4cc(O)cc(O)c4-c4cc3ccc4O)[C@H](O)c3ccc(c(Cl)c3)Oc3cc2cc(c3O[C@@H]2O[C@H](CO)[C@@H](O)[C@H](O)[C@H]2O[C@H]2C[C@](C)(N)[C@H](O)[C@H](C)O2)Oc2ccc(cc2Cl)[C@H]1O [VANCOMYCIN]	–	2 (≈ 1.38 µM)	–	–	–	Activity (Staphylococcus aureus [8]): Active
CC[C@H](C)[C@H](NC(=O)CN)C(=O)NCC(=O)N[C@@H](C)C(=O)N[C@H](C(=O)N[C@@H](CC(C)C)C(=O)N[C@@H](CCCCN)C(=O)N[C@H](C(=O)N[C@@H](CC(C)C)C(=O)N[C@H](C(=O)N[C@H](C(=O)NCC(=O)N[C@@H](CC(C)C)C(=O)N1CCC[C@H]1C(=O)N[C@@H](C)C(=O)N[C@@H](CC(C)C)C(=O)N[C@H](C(=O)N[C@@H](CO)C(=O)N[C@@H](Cc1c[nH]c2ccccc12)C(=O)N[C@H](C(=O)N[C@@H](CCCCN)C(=O)N[C@@H](CCCNC(=N)N)C(=O)N[C@@H](CCCCN)C(=O)N[C@@H](CCCNC(=N)N)C(=O)N[C@@H](CCC(N)=O)C(=O)N[C@@H](CCC(N)=O)C(N)=O)[C@@H](C)CC)[C@@H](C)CC)[C@@H](C)O)[C@@H](C)O)C(C)C)C(C)C [MELITTIN]	–	2 (≈ 0.703 µM)	–	8 (≈ 2.81 µM)	–	fold change (FC) (Staphylococcus aureus [9]): 32; fold change (FC) (Staphylococcus aureus [10]): 32; fold change (FC) (Staphylococcus aureus [11]): 32; Activity (Cell membrane [4]): Active; Flu intensity (Cell membrane [12]): 600; Activity (Cell membrane [13]): Active; viability at 48 h, 64 microg/ml [6]: 1.4%; viability at 48 h, 64 microg/ml [7]: 5.7%
CCCCCCCNC(=O)C[N+](C)(C)CCCOc1ccc(OCCC[N+](C)(C)CC(=O)NCCCCCCC)cc1.[Br-].[Br-]	–	–	–	–	–	MIC (Staphylococcus aureus [14]): 0.5 µg/mL; HC50 at 1 h [15]: 1220 µg/mL
COLISTIN	–	–	–	–	–	MIC (Staphylococcus aureus [16]): 16 µg/mL; MIC (Staphylococcus aureus [17]): 16 µg/mL; MIC (Staphylococcus aureus [18]): 8 µg/mL; fold change (FC) (Staphylococcus aureus [9]): 4; fold change (FC) (Staphylococcus aureus [10]): 2; fold change (FC) (Staphylococcus aureus [11]): 4
O=C(O)c1cn(C2CC2)c2cc(N3CCN(C(=O)c4cc[n+](Cc5ccc(C(F)(F)F)cc5)cc4)CC3)c(F)cc2c1=O.[Br-]	16	8	4	4	> 1280	–
O=C(O)c1cn(C2CC2)c2cc(N3CCN(C(=O)c4cc[n+](Cc5ccccc5)cc4)CC3)c(F)cc2c1=O.[Br-]	16	8	8	4	> 1280	–
C=C[C@]1(C)C[C@@H](OC(=O)CSCCN(CC)CC)[C@]2(C)[C@H](C)CC[C@]3(CCC(=O)[C@H]32)[C@@H](C)[C@@H]1O [TIAMULIN]	–	–	–	–	–	viability at 48 h, 64 microg/ml [6]: 85.9%; viability at 48 h, 64 microg/ml [7]: 32.9%
